What was measured:
Heart = test: Toxicity in BALB/c mouse assessed as effect on heart by H and E staining based histological analysis; assay type: tissue-based; conditions: in vivo
[1] = molecular target: Phosphatidylinositol 4,5-bisphosphate 3-kinase catalytic subunit alpha isoform (Homo sapiens, UniProt P42336); test: Inhibition of PI3Kalpha (unknown origin) using PIP2 as substrate in presence of ATP incubated for 60 mins by ADP-glo based luminescence assay
NCI-H1975 = test: Antiproliferative activity against human NCI-H1975 cells harboring EGFR L858R/T790M double mutant assessed as reduction in cell viability incubated for 72 hrs by celltiter-glo assay; assay type: functional, cell-based; conditions: NCI-H1975, 72 h
[2] = MRT in Sprague-Dawley rat at 20 mg/kg, iv by LC-MS/MS analysis; assay type: ADME, organism-based; conditions: in vivo
BaF3 = test: Antiproliferative activity against mouse BaF3 cells harboring EGFR L858R/T790M/C797S mutant assessed as reduction in cell viability incubated for 72 hrs by celltiter-glo assay; assay type: toxicity, cell-based; conditions: BaF3, 72 h
[3] = AUC (0 to 72 hrs) in Sprague-Dawley rat at 20 mg/kg, iv by LC-MS/MS analysis; assay type: ADME, organism-based; set-up: time < 72 hr, route intravenous, dose 20 mg/kg; conditions: in vivo
Spleen = test: Toxicity in BALB/c mouse assessed as effect on spleen by H and E staining based histological analysis; assay type: tissue-based; conditions: in vivo
[4] = molecular target: Serine/threonine-protein kinase mTOR (Homo sapiens, UniProt P42345); test: Inhibition of mTOR (unknown origin) using U-Light-4E-BP1 peptide as a substrate in presence of ATP incubated for 45 mins by Lance ultra assay
HCT-116 [5] = test: Induction of apoptosis in human HCT-116 cells assessed as necrotic cells at 5 uM incubated for 24 hrs by annexin V FITC/propidium iodide staining based flow cytometry (reference value: 0.9 %); assay type: functional
[6] = Stability in Sprague-Dawley rat plasma; assay type: ADME, cell-free
HCT-116 [7] = test: Induction of apoptosis in human HCT-116 cells assessed as late apoptotic cells at 5 uM incubated for 24 hrs by annexin V FITC/propidium iodide staining based flow cytometry (reference value: 6.8 %); assay type: functional
Cytochrome P450 3A4 = Cytochrome P450 3A4 (Homo sapiens, UniProt P08684); test: Inhibition of CYP3A4 (unknown origin); assay type: ADME
Cytochrome P450 3A4, sequence (P08684 whole entry): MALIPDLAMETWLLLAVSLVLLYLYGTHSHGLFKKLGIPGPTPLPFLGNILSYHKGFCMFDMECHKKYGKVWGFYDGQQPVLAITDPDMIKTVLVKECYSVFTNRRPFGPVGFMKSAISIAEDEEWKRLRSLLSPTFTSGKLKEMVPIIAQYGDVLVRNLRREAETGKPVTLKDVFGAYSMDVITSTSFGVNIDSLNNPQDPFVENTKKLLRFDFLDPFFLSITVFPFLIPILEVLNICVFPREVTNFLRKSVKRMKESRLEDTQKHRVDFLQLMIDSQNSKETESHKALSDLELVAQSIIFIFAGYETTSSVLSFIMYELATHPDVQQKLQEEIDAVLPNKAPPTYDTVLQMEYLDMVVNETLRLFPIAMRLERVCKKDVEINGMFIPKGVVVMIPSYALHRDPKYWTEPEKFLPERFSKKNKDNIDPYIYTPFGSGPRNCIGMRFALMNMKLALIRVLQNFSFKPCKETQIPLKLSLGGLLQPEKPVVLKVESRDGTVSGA

Kidney = test: Toxicity in BALB/c mouse assessed as effect on kidney by H and E staining based histological analysis; assay type: tissue-based; conditions: in vivo
HCT-116 [8] = test: Induction of apoptosis in human HCT-116 cells assessed as necrotic cells at 10 uM incubated for 24 hrs by annexin V FITC/propidium iodide staining based flow cytometry (reference value: 0.9 %); assay type: functional
Mus musculus = test: Hyperglycemic activity in ICR mouse model assessed as effect on blood glucose level at 20 mg/kg, iv by glucometer; assay type: toxicity, organism-based; conditions: in vivo
Cytochrome P450 1A2 = Cytochrome P450 1A2 (Homo sapiens, UniProt P05177); test: Inhibition of CYP1A2 (unknown origin); assay type: ADME
Cytochrome P450 1A2, sequence (P05177 whole entry): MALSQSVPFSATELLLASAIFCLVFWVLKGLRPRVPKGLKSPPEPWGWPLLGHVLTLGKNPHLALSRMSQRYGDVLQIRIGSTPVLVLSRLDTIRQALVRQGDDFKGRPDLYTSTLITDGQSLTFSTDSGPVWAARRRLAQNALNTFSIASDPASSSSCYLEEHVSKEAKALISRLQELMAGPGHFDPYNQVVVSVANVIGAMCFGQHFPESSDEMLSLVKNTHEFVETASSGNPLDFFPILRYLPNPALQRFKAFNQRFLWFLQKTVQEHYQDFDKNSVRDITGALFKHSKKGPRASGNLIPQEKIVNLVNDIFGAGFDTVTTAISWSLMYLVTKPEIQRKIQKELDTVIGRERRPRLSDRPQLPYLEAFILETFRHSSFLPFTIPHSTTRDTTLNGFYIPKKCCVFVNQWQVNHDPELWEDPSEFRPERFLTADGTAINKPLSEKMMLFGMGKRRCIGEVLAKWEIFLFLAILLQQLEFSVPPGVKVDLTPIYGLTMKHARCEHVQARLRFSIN

MCF7 = test: Antiproliferative activity against human MCF7 cells assessed as reduction in cell viability incubated for 48 hrs by MTT assay; assay type: functional, cell-based; conditions: MCF7, 48 h
HCT-116 [9] = test: Induction of apoptosis in human HCT-116 cells assessed as early apoptotic cells at 2.5 uM incubated for 24 hrs by annexin V FITC/propidium iodide staining based flow cytometry (reference value: 11.1 %); assay type: functional
HCT-116 [10] = test: Inhibition of cell migration in human HCT-116 cells at 1.5 uM measured after 24 hrs by wound healing assay (reference value: 31.16 %); assay type: functional
MDA-MB-231 = test: Antiproliferative activity against human MDA-MB-231 cells assessed as reduction in cell viability incubated for 48 hrs by MTT assay; assay type: functional, cell-based; conditions: MDA-MB-231, 48 h
[11] = Half life in Sprague-Dawley rat at 20 mg/kg, iv by LC-MS/MS analysis; assay type: ADME, organism-based; conditions: in vivo
[12] = Volume of distribution at steady state in Sprague-Dawley rat at 20 mg/kg, iv by LC-MS/MS analysis; assay type: ADME, organism-based; conditions: in vivo
HCT-116 [13] = test: Inhibition of cell migration in human HCT-116 cells at 3 uM measured after 24 hrs by wound healing assay (reference value: 31.16 %); assay type: functional
HCT-116 [14] = test: Induction of apoptosis in human HCT-116 cells assessed as early apoptotic cells at 5 uM incubated for 24 hrs by annexin V FITC/propidium iodide staining based flow cytometry (reference value: 11.1 %); assay type: functional
[15] = Stability of the compound in simulated gastrointestinal fluid; assay type: ADME
L02 = test: Antiproliferative activity against human L02 cells assessed as reduction in cell viability incubated for 48 hrs by MTT assay; assay type: cell-based; conditions: L02, 48 h
HepG2 = test: Antiproliferative activity against human HepG2 cells assessed as reduction in cell viability incubated for 48 hrs by MTT assay; assay type: functional, cell-based; conditions: HepG2, 48 h
Lung = test: Toxicity in BALB/c mouse assessed as effect on lungs by H and E staining based histological analysis; assay type: tissue-based; conditions: in vivo
HCT-116 [16] = test: Induction of apoptosis in human HCT-116 cells assessed as late apoptotic cells at 10 uM incubated for 24 hrs by annexin V FITC/propidium iodide staining based flow cytometry (reference value: 6.8 %); assay type: functional
Cytochrome P450 2D6 = Cytochrome P450 2D6 (Homo sapiens, UniProt P10635); test: Inhibition of CYP2D6 (unknown origin); assay type: ADME
Cytochrome P450 2D6, sequence (P10635 whole entry): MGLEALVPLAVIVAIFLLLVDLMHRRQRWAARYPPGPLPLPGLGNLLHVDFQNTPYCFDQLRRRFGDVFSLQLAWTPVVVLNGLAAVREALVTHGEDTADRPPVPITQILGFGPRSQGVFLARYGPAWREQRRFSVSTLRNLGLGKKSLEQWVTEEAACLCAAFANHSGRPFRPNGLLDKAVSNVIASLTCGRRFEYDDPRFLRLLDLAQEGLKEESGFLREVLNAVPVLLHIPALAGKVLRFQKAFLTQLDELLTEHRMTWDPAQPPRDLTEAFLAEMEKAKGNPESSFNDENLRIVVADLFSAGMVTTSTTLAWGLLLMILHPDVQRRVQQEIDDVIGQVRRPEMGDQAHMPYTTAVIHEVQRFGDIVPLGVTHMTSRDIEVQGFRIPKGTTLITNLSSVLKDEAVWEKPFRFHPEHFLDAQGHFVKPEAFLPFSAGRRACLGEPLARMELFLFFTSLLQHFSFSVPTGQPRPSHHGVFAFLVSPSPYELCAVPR

HCT-116 [17] = test: Induction of cell cycle arrest in human HCT-116 cells assessed as increase in accumulation at G2/M phase at 1.5 to 6 uM after 24 hrs by propidium iodide staining based flow cytometric analysis (reference value: 19.1 %); assay type: functional; conditions: dose 1.5-6 µM
[18] = Tmax in Sprague-Dawley rat at 20 mg/kg, iv by LC-MS/MS analysis; assay type: ADME, organism-based; conditions: in vivo
HCT-116 [19] = test: Inhibition of cell migration in human HCT-116 cells at 6 uM measured after 24 hrs by wound healing assay (reference value: 31.16 %); assay type: functional
[20] = Selectivity index, ratio of IC50 for antiproliferative activity against human L02 cells to IC50 for antiproliferative activity against human HepG2 cells; assay type: toxicity, cell-based; conditions: L02 cells versus HepG2 cells, read-out: Ratio IC50
HeLa = test: Antiproliferative activity against human HeLa cells assessed as reduction in cell viability incubated for 48 hrs by MTT assay; assay type: functional, cell-based
Cytochrome P450 2C9 = Cytochrome P450 2C9 (Homo sapiens, UniProt P11712); test: Inhibition of CYP2C9 (unknown origin); assay type: ADME
Cytochrome P450 2C9, sequence (P11712 whole entry): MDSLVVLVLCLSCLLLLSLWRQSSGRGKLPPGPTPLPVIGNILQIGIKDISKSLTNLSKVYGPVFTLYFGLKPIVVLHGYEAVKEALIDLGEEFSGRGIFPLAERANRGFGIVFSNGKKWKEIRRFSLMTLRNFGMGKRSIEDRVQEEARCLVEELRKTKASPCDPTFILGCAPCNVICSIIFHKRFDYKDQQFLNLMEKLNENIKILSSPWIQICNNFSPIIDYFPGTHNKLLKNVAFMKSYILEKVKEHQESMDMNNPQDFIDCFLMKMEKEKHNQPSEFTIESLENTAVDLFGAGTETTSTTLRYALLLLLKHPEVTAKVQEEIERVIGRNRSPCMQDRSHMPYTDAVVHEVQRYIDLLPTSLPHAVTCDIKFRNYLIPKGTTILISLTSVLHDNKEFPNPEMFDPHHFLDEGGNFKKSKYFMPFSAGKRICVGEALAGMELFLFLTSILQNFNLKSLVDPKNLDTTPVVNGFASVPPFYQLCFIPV

[21] = Metabolic stability in Sprague-Dawley rat liver microsome; assay type: ADME; conditions: microsomes
HCT-116 [22] = test: Induction of apoptosis in human HCT-116 cells assessed as late apoptotic cells at 2.5 uM incubated for 24 hrs by annexin V FITC/propidium iodide staining based flow cytometry (reference value: 6.8 %); assay type: functional
[23] = molecular target: Phosphatidylinositol 4,5-bisphosphate 3-kinase catalytic subunit beta isoform (Homo sapiens, UniProt P42338); test: Inhibition of PI3Kbeta (unknown origin) using PIP2 as substrate in presence of ATP incubated for 60 mins by ADP-glo based luminescence assay
Phosphatidylinositol 4,5-bisphosphate 3-kinase catalytic subunit beta isoform, sequence (P42338 whole entry, canonical isoform): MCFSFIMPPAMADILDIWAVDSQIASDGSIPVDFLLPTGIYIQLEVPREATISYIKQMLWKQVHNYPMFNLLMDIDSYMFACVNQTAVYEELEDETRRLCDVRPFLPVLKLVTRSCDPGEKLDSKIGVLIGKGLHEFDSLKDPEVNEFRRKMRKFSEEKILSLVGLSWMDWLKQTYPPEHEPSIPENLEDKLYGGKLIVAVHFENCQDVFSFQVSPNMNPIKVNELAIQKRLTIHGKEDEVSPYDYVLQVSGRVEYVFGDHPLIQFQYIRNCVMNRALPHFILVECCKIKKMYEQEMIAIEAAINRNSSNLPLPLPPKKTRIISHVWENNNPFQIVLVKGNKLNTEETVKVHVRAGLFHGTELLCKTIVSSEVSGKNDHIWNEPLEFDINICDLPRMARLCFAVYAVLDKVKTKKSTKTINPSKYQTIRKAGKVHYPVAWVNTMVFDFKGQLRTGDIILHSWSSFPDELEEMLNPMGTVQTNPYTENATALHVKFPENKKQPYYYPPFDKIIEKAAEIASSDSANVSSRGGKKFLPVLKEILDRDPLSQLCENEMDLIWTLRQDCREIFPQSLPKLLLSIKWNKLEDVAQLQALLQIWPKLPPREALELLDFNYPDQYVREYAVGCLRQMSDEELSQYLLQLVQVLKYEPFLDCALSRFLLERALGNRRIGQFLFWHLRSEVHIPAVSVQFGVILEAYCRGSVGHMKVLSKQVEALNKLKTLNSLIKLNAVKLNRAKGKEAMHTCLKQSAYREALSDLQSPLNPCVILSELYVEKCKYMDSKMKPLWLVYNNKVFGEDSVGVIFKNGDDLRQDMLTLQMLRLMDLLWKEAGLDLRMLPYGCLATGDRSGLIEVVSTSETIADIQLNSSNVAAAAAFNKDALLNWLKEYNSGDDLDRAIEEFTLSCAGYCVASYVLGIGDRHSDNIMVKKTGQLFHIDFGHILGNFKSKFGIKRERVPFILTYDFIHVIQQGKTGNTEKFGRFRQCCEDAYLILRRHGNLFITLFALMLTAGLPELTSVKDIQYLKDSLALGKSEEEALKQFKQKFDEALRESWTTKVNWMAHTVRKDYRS

Cytochrome P450 2C19 = Cytochrome P450 2C19 (Homo sapiens, UniProt P33261); test: Inhibition of CYP2C19 (unknown origin); assay type: ADME
Cytochrome P450 2C19, sequence (P33261 whole entry): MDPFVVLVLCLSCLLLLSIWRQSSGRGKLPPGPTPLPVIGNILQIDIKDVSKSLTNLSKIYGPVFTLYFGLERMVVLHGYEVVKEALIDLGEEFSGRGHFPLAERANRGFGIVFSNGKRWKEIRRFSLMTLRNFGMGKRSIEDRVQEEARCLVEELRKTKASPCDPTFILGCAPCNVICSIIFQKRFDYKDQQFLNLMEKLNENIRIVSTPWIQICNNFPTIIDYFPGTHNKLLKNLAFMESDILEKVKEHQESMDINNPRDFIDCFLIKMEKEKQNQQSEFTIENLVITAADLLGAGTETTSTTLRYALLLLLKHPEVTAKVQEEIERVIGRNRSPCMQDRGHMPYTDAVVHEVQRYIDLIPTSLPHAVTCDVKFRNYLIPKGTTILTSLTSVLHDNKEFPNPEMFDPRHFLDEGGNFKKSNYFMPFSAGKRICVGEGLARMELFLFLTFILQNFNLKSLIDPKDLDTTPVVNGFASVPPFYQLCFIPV

HCT-116 [24] = test: Induction of apoptosis in human HCT-116 cells assessed as early apoptotic cells at 10 uM incubated for 24 hrs by annexin V FITC/propidium iodide staining based flow cytometry (reference value: 11.1 %); assay type: functional

Phosphatidylinositol 4,5-bisphosphate 3-kinase catalytic subunit alpha isoform, sequence (P42336 whole entry, canonical isoform): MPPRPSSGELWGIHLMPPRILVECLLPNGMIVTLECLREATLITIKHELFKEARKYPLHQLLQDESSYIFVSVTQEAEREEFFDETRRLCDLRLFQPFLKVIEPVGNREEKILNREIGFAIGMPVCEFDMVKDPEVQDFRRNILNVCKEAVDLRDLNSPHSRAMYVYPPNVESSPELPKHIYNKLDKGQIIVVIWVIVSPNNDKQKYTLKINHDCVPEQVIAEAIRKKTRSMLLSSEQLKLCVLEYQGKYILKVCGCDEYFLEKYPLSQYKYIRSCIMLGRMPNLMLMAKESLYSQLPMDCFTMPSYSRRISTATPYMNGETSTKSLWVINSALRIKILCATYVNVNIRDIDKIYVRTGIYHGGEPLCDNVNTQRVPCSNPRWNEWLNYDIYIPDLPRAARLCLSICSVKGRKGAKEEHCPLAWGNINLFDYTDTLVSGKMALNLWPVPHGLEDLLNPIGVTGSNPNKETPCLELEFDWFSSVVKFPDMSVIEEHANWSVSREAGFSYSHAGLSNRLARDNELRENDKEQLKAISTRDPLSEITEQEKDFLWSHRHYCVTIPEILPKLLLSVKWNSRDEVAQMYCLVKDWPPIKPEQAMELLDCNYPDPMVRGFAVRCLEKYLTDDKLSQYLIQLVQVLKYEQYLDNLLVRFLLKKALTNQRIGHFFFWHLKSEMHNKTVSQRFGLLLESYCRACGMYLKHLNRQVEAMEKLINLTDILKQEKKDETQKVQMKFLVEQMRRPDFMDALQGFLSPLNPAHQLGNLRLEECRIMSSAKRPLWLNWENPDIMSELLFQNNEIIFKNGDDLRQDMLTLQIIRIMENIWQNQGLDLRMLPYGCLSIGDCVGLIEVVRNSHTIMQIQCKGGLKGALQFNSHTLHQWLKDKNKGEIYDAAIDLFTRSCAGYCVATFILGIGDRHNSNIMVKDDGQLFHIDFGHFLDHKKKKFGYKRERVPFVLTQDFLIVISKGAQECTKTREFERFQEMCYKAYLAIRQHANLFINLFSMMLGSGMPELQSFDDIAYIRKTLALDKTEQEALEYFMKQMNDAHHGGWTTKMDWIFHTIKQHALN

IC50 [1]: 0.0007 µM | IC50 (NCI-H1975): 0.217 µM | MRT [2]: 10.4 h | AUC(0-t) at 72 h [3]: 29.9 µg·h/mL | IC50 [4]: 0.0033 µM | Stability [6]: Stable | IC50 (Cytochrome P450 3A4): > 50 µM | IC50 (Cytochrome P450 1A2): > 50 µM | IC50 (MCF7): 2.22 µM | IC50 (MDA-MB-231): 6.48 µM | half-life [11]: 19 h | Vdss [12]: 17.9 L/kg | Stability [15]: Stable | IC50 (HepG2): 15.1 µM | IC50 (Cytochrome P450 2D6): > 50 µM | Tmax [18]: 1.8 min | IC50 (HeLa): 13.4 µM | IC50 (Cytochrome P450 2C9): > 50 µM | Stability [21]: Stable | IC50 [23]: 0.0043 µM | IC50 (Cytochrome P450 2C19): > 50 µM
Structure (SMILES): NC(=O)[C@@H]1CCCN1C(=O)c1ccc(NC(=O)Nc2ccc(-c3nc(N4CCOCC4)nc(N4CCOCC4)n3)cc2)cc1
Activity (Heart): Non-Toxic | IC50 (BaF3): 0.217 µM | Activity (Spleen): Non-Toxic | Activity (HCT-116 [5]): 1.79% | Activity (HCT-116 [7]): 9.71% | Activity (Kidney): Non-Toxic | Activity (HCT-116 [8]): 1.7% | Activity (Mus musculus): Non-Toxic | Activity (HCT-116 [9]): 18.5% | inhibition at 1.5 µM (HCT-116 [10]): 12.2% | inhibition at 3 µM (HCT-116 [13]): 9.72% | Activity (HCT-116 [14]): 13.3% | IC50 (L02): > 100 µM | Activity (Lung): Non-Toxic | Activity (HCT-116 [16]): 10.3% | Activity (HCT-116 [17]): 22.2% | inhibition at 6 µM (HCT-116 [19]): 6.4% | selectivity ratio [20]: 6.6 | Activity (HCT-116 [22]): 20.6% | Activity (HCT-116 [24]): 24.9%

From ChEMBL document CHEMBL5046253, “Synthesis and bioevaluation of diaryl urea derivatives as potential antitumor agents for the treatment of human colorectal cancer” (Eur J Med Chem, 2022)
